Data from ChEMBL document CHEMBL4699517 (Bioorg Med Chem Lett, 2020).
The source made the active and inactive calls. The rule behind the calls is not given here.

Assays:
Format in all cases: cell-based
[1] = biological target: Phosphatidylinositol 4,5-bisphosphate 3-kinase catalytic subunit gamma isoform (Homo sapiens) (UniProt P48736); assay: Inhibition of PI3Kgamma in human SUDHL-6 cells assessed as inhibition of cell viability at 100 nM after 72 hrs by CellTiter-Glo luminescent assay; conditions: SU-DHL-6
[2] = biological target: Phosphatidylinositol 4,5-bisphosphate 3-kinase catalytic subunit gamma isoform (Homo sapiens) (UniProt P48736); assay: Inhibition of PI3Kgamma in human SUDHL-10 cells assessed as inhibition of cell viability at 100 nM after 72 hrs by CellTiter-Glo luminescent assay; conditions: SU-DHL-10
[3] = biological target: Phosphatidylinositol 4,5-bisphosphate 3-kinase catalytic subunit gamma isoform (Homo sapiens) (UniProt P48736); assay: Inhibition of PI3Kgamma in human Raji cells assessed as inhibition of cell viability at 100 nM after 72 hrs by CellTiter-Glo luminescence assay
[4] = biological target: Phosphatidylinositol 4,5-bisphosphate 3-kinase catalytic subunit gamma isoform (Homo sapiens) (UniProt P48736); assay: Inhibition of PI3Kgamma in human RPMI-8226 cells assessed as inhibition of cell viability at 100 nM after 72 hrs by CellTiter-Glo luminescent assay
[5] = biological target: Phosphatidylinositol 4,5-bisphosphate 3-kinase catalytic subunit gamma isoform (Homo sapiens) (UniProt P48736); assay: Inhibition of PI3Kgamma in human MOLT-4 cells assessed as inhibition of cell viability at 100 nM after 72 hrs by CellTiter-Glo luminescent assay
[6] = biological target: Phosphatidylinositol 4,5-bisphosphate 3-kinase catalytic subunit gamma isoform (Homo sapiens) (UniProt P48736); assay: Inhibition of PI3Kgamma in human LCL-1 cells assessed as inhibition of cell viability at 100 nM after 72 hrs by CellTiter-Glo luminescent assay

Chain of Phosphatidylinositol 4,5-bisphosphate 3-kinase catalytic subunit gamma isoform (Homo sapiens) (P48736 whole entry, looked up, canonical isoform): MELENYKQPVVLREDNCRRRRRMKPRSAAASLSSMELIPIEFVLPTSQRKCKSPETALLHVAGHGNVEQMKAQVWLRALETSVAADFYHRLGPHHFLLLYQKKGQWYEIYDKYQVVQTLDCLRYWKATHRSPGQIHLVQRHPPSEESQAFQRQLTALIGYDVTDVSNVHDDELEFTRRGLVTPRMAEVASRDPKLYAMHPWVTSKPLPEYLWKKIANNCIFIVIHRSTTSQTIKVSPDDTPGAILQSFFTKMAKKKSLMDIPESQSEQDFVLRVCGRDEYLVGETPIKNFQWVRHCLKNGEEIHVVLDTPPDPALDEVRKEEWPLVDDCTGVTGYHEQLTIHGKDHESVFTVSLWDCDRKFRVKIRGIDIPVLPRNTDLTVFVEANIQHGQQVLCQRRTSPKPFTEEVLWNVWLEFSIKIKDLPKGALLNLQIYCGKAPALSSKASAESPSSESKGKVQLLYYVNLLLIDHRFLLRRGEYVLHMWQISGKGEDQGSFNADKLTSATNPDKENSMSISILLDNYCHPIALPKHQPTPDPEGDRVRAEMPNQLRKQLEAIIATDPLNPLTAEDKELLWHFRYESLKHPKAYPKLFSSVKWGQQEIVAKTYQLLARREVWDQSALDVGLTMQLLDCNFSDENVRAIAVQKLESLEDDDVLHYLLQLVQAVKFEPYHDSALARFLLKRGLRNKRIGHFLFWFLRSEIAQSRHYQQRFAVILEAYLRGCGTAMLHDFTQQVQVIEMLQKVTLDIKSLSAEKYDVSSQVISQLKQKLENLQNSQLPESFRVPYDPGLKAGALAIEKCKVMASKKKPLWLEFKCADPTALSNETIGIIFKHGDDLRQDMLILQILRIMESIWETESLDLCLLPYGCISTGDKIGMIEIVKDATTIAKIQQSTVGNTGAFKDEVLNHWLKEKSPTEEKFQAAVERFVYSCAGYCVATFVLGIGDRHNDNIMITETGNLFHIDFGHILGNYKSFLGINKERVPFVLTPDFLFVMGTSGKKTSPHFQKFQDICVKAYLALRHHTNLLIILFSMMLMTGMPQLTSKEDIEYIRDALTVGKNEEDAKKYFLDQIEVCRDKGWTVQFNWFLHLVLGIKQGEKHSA

Row | SMILES | inhibition [1] | inhibition [2] | inhibition [3] | inhibition [4] | inhibition [5] | inhibition [6]
1 | COC(=O)[C@@]12OC[C@]34[C@H]([C@@H](O)[C@@H]1O)[C@@]1(C)CC(=O)C(OCC(=O)NCCN)=C(C)[C@@H]1C[C@H]3OC(=O)[C@H](OC(=O)C=C(C)C)[C@@H]24 | Active | Active | Active | Active | Active | Active
2 | COC(=O)[C@@]12OC[C@]34[C@H]([C@@H](O)[C@@H]1O)[C@@]1(C)CC(=O)C(OCC(=O)NCCC(=O)OC(C)(C)C)=C(C)[C@@H]1C[C@H]3OC(=O)[C@H](OC(=O)C=C(C)C)[C@@H]24 | – | – | inactive | – | – | –
3 | COC(=O)[C@@]12OC[C@]34[C@H]([C@@H](O)[C@@H]1O)[C@@]1(C)CC(=O)C(OC(=O)C[C@H](C)NS(C)(=O)=O)=C(C)[C@@H]1C[C@H]3OC(=O)[C@H](OC(=O)C=C(C)C)[C@@H]24 | – | – | inactive | – | – | –
4 | COC(=O)[C@@]12OC[C@]34[C@H]([C@@H](O)[C@@H]1O)[C@@]1(C)CC(=O)C(OCC(N)=O)=C(C)[C@@H]1C[C@H]3OC(=O)[C@H](OC(=O)C=C(C)C)[C@@H]24 | – | – | inactive | – | – | –
5 | COC(=O)[C@@]12OC[C@]34[C@H]([C@@H](O)[C@@H]1O)[C@@]1(C)CC(=O)C(OC(=O)[C@@H]5CCCN5)=C(C)[C@@H]1C[C@H]3OC(=O)[C@H](OC(=O)C=C(C)C)[C@@H]24 | – | – | Active | – | – | –
6 | COC(=O)[C@@]12OC[C@]34[C@H]([C@@H](O)[C@@H]1O)[C@@]1(C)CC(=O)C(OC(=O)[C@H](C)NC(=O)[C@H](C)N)=C(C)[C@@H]1C[C@H]3OC(=O)[C@H](OC(=O)C=C(C)C)[C@@H]24 | inactive | inactive | inactive | inactive | inactive | inactive
7 | COC(=O)[C@@]12OC[C@]34[C@H]([C@@H](O)[C@@H]1O)[C@@]1(C)CC(=O)C(OC(=O)[C@H](CC(C)C)NC(=O)OC(C)(C)C)=C(C)[C@@H]1C[C@H]3OC(=O)[C@H](OC(=O)C=C(C)C)[C@@H]24 | – | – | inactive | – | – | –
8 | COC(=O)[C@@]12OC[C@]34[C@H]([C@@H](O)[C@@H]1O)[C@@]1(C)CC(=O)C(OCC(=O)C(C)(C)C)=C(C)[C@@H]1C[C@H]3OC(=O)[C@H](OC(=O)C=C(C)C)[C@@H]24 | – | – | inactive | – | – | –
9 | COC(=O)[C@@]12OC[C@]34[C@H]([C@@H](O)[C@@H]1O)[C@@]1(C)CC(=O)C(OC(=O)[C@@H](N)C(C)C)=C(C)[C@@H]1C[C@H]3OC(=O)[C@H](OC(=O)C=C(C)C)[C@@H]24 | – | – | Active | – | – | –
10 | COC(=O)[C@@]12OC[C@]34[C@H]([C@@H](O)[C@@H]1O)[C@@]1(C)CC(=O)C(OC(=O)[C@H]5CCCN5)=C(C)[C@@H]1C[C@H]3OC(=O)[C@H](OC(=O)C=C(C)C)[C@@H]24 | Active | Active | Active | Active | Active | Active
11 | COC(=O)[C@@]12OC[C@]34[C@H]([C@@H](O)[C@@H]1O)[C@@]1(C)CC(=O)C(OC(=O)[C@H](C)NC(=O)OC(C)(C)C)=C(C)[C@@H]1C[C@H]3OC(=O)[C@H](OC(=O)C=C(C)C)[C@@H]24 | – | – | Active | – | – | –
12 | COC(=O)[C@@]12OC[C@]34[C@H]([C@@H](O)[C@@H]1O)[C@@]1(C)CC(=O)C(OCC(=O)NCCC(=O)O)=C(C)[C@@H]1C[C@H]3OC(=O)[C@H](OC(=O)C=C(C)C)[C@@H]24 | – | – | inactive | – | – | –
13 | COC(=O)[C@@]12OC[C@]34[C@H]([C@@H](O)[C@@H]1O)[C@@]1(C)CC(=O)C(OC(=O)C[C@H](C)NC(=O)C[C@H](C)N)=C(C)[C@@H]1C[C@H]3OC(=O)[C@H](OC(=O)C=C(C)C)[C@@H]24 | Active | Active | Active | Active | Active | Active
14 | COC(=O)[C@@]12OC[C@]34[C@H]([C@@H](O)[C@@H]1O)[C@@]1(C)CC(=O)C(OC(=O)[C@@H]5CCCN5C(=O)OC(C)(C)C)=C(C)[C@@H]1C[C@H]3OC(=O)[C@H](OC(=O)C=C(C)C)[C@@H]24 | – | – | Active | – | – | –
15 | COC(=O)[C@@]12OC[C@]34[C@H]([C@@H](O)[C@@H]1O)[C@@]1(C)CC(=O)C(OC(=O)CN)=C(C)[C@@H]1C[C@H]3OC(=O)[C@H](OC(=O)C=C(C)C)[C@@H]24 | – | – | Active | – | – | –
16 | COC(=O)[C@@]12OC[C@]34[C@H]([C@@H](O)[C@@H]1O)[C@@]1(C)CC(=O)C(OCC(=O)C5CC5)=C(C)[C@@H]1C[C@H]3OC(=O)[C@H](OC(=O)C=C(C)C)[C@@H]24 | – | – | inactive | – | – | –
17 | COC(=O)[C@@]12OC[C@]34[C@H]([C@@H](O)[C@@H]1O)[C@@]1(C)CC(=O)C(OC(=O)CNC(=O)CNC(=O)CN)=C(C)[C@@H]1C[C@H]3OC(=O)[C@H](OC(=O)C=C(C)C)[C@@H]24 | Active | Active | Active | Active | Active | Active

Row | SMILES | inhibition [1] | inhibition [2] | inhibition [3] | inhibition [4] | inhibition [5] | inhibition [6]
18 | COC(=O)[C@@]12OC[C@]34[C@H]([C@@H](O)[C@@H]1O)[C@@]1(C)CC(=O)C(OC(=O)C[C@H](C)NC(=O)OC(C)(C)C)=C(C)[C@@H]1C[C@H]3OC(=O)[C@H](OC(=O)C=C(C)C)[C@@H]24 | – | – | inactive | – | – | –
19 | COC(=O)[C@@]12OC[C@]34[C@H]([C@@H](O)[C@@H]1O)[C@@]1(C)CC(=O)C(OC(=O)CNC(=O)CN)=C(C)[C@@H]1C[C@H]3OC(=O)[C@H](OC(=O)C=C(C)C)[C@@H]24 | Active | Active | Active | Active | Active | Active
20 | COC(=O)[C@@]12OC[C@]34[C@H]([C@@H](O)[C@@H]1O)[C@@]1(C)CC(=O)C(OC(=O)C[C@@H](N)C(F)(F)F)=C(C)[C@@H]1C[C@H]3OC(=O)[C@H](OC(=O)C=C(C)C)[C@@H]24 | – | – | inactive | – | – | –
21 | COC(=O)[C@@]12OC[C@]34[C@H]([C@@H](O)[C@@H]1O)[C@@]1(C)CC(=O)C(OC(=O)[C@@H](N)CC(C)C)=C(C)[C@@H]1C[C@H]3OC(=O)[C@H](OC(=O)C=C(C)C)[C@@H]24 | – | – | Active | – | – | –
22 | CC[C@H](C)[C@H](NC(=O)OC(C)(C)C)C(=O)OC1=C(C)[C@@H]2C[C@H]3OC(=O)[C@H](OC(=O)C=C(C)C)[C@H]4[C@]5(C(=O)OC)OC[C@]34[C@H]([C@@H](O)[C@@H]5O)[C@@]2(C)CC1=O | – | – | inactive | – | – | –
23 | COC(=O)[C@@]12OC[C@]34[C@H]([C@@H](O)[C@@H]1O)[C@@]1(C)CC(=O)C(OC(=O)[C@@H](NC(=O)OC(C)(C)C)C(C)C)=C(C)[C@@H]1C[C@H]3OC(=O)[C@H](OC(=O)C=C(C)C)[C@@H]24 | – | – | inactive | – | – | –
24 | CC[C@H](C)[C@H](N)C(=O)OC1=C(C)[C@@H]2C[C@H]3OC(=O)[C@H](OC(=O)C=C(C)C)[C@H]4[C@]5(C(=O)OC)OC[C@]34[C@H]([C@@H](O)[C@@H]5O)[C@@]2(C)CC1=O | – | – | Active | – | – | –
25 | COC(=O)[C@@]12OC[C@]34[C@H]([C@@H](O)[C@@H]1O)[C@@]1(C)CC(=O)C(OC(=O)[C@@H]5CC(F)(F)CN5)=C(C)[C@@H]1C[C@H]3OC(=O)[C@H](OC(=O)C=C(C)C)[C@@H]24 | Active | Active | Active | Active | Active | Active
26 | COC(=O)COC1=C(C)[C@@H]2C[C@H]3OC(=O)[C@H](OC(=O)C=C(C)C)[C@H]4[C@]5(C(=O)OC)OC[C@]34[C@H]([C@@H](O)[C@@H]5O)[C@@]2(C)CC1=O | – | – | inactive | – | – | –
27 | COC(=O)[C@@]12OC[C@]34[C@H]([C@@H](O)[C@@H]1O)[C@@]1(C)CC(=O)C(OC(=O)[C@H](C)N)=C(C)[C@@H]1C[C@H]3OC(=O)[C@H](OC(=O)C=C(C)C)[C@@H]24 | – | – | Active | – | – | –
28 | COC(=O)[C@@]12OC[C@]34[C@H]([C@@H](O)[C@@H]1O)[C@@]1(C)CC(=O)C(OC(=O)[C@@H](C)N)=C(C)[C@@H]1C[C@H]3OC(=O)[C@H](OC(=O)C=C(C)C)[C@@H]24 | Active | Active | Active | Active | Active | Active
29 | COC(=O)[C@@]12OC[C@]34[C@H]([C@@H](O)[C@@H]1O)[C@@]1(C)CC(=O)C(OCC(=O)NC(Cc5ccccc5)C(=O)O)=C(C)[C@@H]1C[C@H]3OC(=O)[C@H](OC(=O)C=C(C)C)[C@@H]24 (some centres undefined) | – | – | inactive | – | – | –
30 | COC(=O)[C@@]12OC[C@]34[C@H]([C@@H](O)[C@@H]1O)[C@@]1(C)CC(=O)C(OC(=O)C[C@@H](N)C5CC5)=C(C)[C@@H]1C[C@H]3OC(=O)[C@H](OC(=O)C=C(C)C)[C@@H]24 | – | – | inactive | – | – | –
31 | COC(=O)[C@@]12OC[C@]34[C@H]([C@@H](O)[C@@H]1O)[C@@]1(C)CC(=O)C(OCC(=O)NC(Cc5ccccc5)C(=O)OC(C)(C)C)=C(C)[C@@H]1C[C@H]3OC(=O)[C@H](OC(=O)C=C(C)C)[C@@H]24 (some centres undefined) | – | – | inactive | – | – | –
32 | COC(=O)[C@@]12OC[C@]34[C@H]([C@@H](O)[C@@H]1O)[C@@]1(C)CC(=O)C(OC(=O)C[C@H](C)NC(C)=O)=C(C)[C@@H]1C[C@H]3OC(=O)[C@H](OC(=O)C=C(C)C)[C@@H]24 | Active | Active | Active | Active | Active | Active
33 | COC(=O)[C@@]12OC[C@]34[C@H]([C@@H](O)[C@@H]1O)[C@@]1(C)CC(=O)C(OCC(=O)NC(C)(C)C)=C(C)[C@@H]1C[C@H]3OC(=O)[C@H](OC(=O)C=C(C)C)[C@@H]24 | – | – | inactive | – | – | –
34 | COC(=O)[C@@]12OC[C@]34[C@H]([C@@H](O)[C@@H]1O)[C@@]1(C)CC(=O)C(OC(=O)C[C@@H](N)C(C)C)=C(C)[C@@H]1C[C@H]3OC(=O)[C@H](OC(=O)C=C(C)C)[C@@H]24 | – | – | inactive | – | – | –
